Data on 11 compounds can be found in patent publication US11655268B2, “Nucleoside or nucleotide derivatives, and uses thereof” (ST Pharm Co., Ltd., priority 2018, dated 2023).

The subject of one series is ZIKV. Briefly: Reduction in viral infection, zika virus in Vero cells, immunofluorescence (4G2 antibody). It counts as cell-based, Zikavirus (MR766). The note with it: 72 h, day 3 after infection.
The nature of series [1]: Cytotoxicity (CC50) in Vero cells. The note with it: African green monkey.
The next series concerns Influenza virus B/Lee/40. Briefly: Cytopathic effect reduction, influenza B Lee in MDCK cells, MTT. To be noted: for Selectivity index FluB Lee: CC50/EC50; for EC50: MDCK, 72 h, read-out: Anti-Flu activity EC50 FluB Lee. Type of series: cell-based.
Another series has as its system CHIKV. Briefly: Cytopathic effect reduction, Chikungunya virus in Vero cells, MTT. Type of series: cell-based. To be noted: 72 h, read-out: EC50 CHIKV. Background: Damage to the host cells serves as the signal in cytopathic effect assays.
A short description of series [2]: in vitro. To be noted: dog.
Series [3] in a line: in vitro. To be noted: human.
Another series concerns MERS-CoV. Briefly: microbe, parasite or virus in culture. Type of series: cell-based, MERS virus (MERS-CoV/KOR/KNIH/002_05_2015). To be noted: Middle East respiratory syndrome-related coronavirus, Huh-7, 72 h, read-out: EC50 MERS-CoV.
A further series relates to DENV. Briefly: Reduction in viral infection, dengue virus in Vero cells, immunofluorescence (4G2 antibody). It counts as cell-based, Dengue virus New Guinea C (NGC). The note with it: 72 h, read-out: EC50 DENV.
For another series, the system named is FIPV. Briefly: Cytopathic effect reduction, FIPV in CRFK cells, MTT. Type of series: cell-based, feline infectious peritonitis virus (FIPV). To be noted: read-out: EC50 FIPV.
A further series relates to hCoV (OC43). Briefly: Cytopathic effect reduction, hCoV OC43 in MRC-5 cells, MTT. Type of series: cell-based, Human coronavirus hCoV OC43. The note with it: Betacoronavirus 1, OC43, MRC5, 72 h, read-out: EC50 hCoV (OC43).
Another series concerns hCoV (229E). Briefly: microbe, parasite or virus in culture. The note with it: MRC5, 72 h, read-out: EC50 hCoV (229E). It counts as cell-based, Human coronavirus hCoV 229E.
A short description of series [4]: in vitro. To be noted: human. This is another data set of the same source.
Series [5] can be described thus: in vitro. The note with it: cat.
Setting [6] is: CC50 (CHIKV), Vero cells, CHIKV test, MTT.
[7] abbreviates: CC50 (DENV), Vero cells, DENV test.
[8] abbreviates: Alphacoronavirus 1, 72 h, CRFK cells, day 3 after infection.
Where [9] appears, read: MRC-5 cells, day 3 after infection.
Where [10] appears, read: read-out: CC50 (hCoV OC43), MRC-5 cells, day 3.

Read-outs that look alike come from different tables or passages of the source.

In general, EC50 refers to the concentration that produces a half-maximal response. Regarding `O=C(Nc1ccn(C2O[C@H](CO)[C@@H](O)[C@H]2F)c(=O)n1)c1cccc(-c2ccccc2)n1` (stereo in doubt) [Example 27, N-(1-((2S,3R,4R,5R)-3-fluoro-4-hydroxy-5-(hydroxymethyl)tetrahydrofuran-2-yl)-2-oxo-1,2-dihydropyrimidin-4-yl)-6-phenylpicolinamide], the concentration for a half-maximal effect (EC50) with ZIKV was above 100 µM; in the series with Influenza virus B/Lee/40 it was 15.6 µM; with CHIKV, above 100 µM; in the series with MERS-CoV it was 20.9 µM; with DENV, 13.7 µM. Besides, the CC50 at 3 days in series [1] (setting [6]) is above 100 µM; in [1] (setting [7]) it was 64.4 µM; in series [1] (CC50, Vero cells, ZIKV test) it was above 100 µM; in the series “in vitro [2]”, above 100 µM; in the series “in vitro [3]”, 56.6 µM. In addition, in the series on Influenza virus B/Lee/40, the “Selectivity index FluB Lee” value is above 6.4.
Consider `Cc1nccc(C(=O)Nc2ccn(C3O[C@H](CO)[C@@H](O)[C@H]3F)c(=O)n2)n1` (stereo in doubt) [Example 29, N-(1-((2S,3R,4R,5R)-3-fluoro-4-hydroxy-5-(hydroxymethyl)tetrahydrofuran-2-yl)-2-oxo-1,2-dihydropyrimidin-4-yl)-2-methylpyrimidin-4-carboxamide], for which the EC50 with ZIKV was above 100 µM; in the series on Influenza virus B/Lee/40 it was 5.6 µM; in the series on CHIKV, 24 µM; in the series with MERS-CoV, above 100 µM; with DENV, above 100 µM. The CC50 at 3 days was above 100 µM in [1] (setting [6]); above 100 µM in series [1] (setting [7]); above 100 µM in [1] (CC50, Vero cells, ZIKV test); above 100 µM in “in vitro [2]”; above 100 µM in “in vitro [3]”. For the same compound, in the series with Influenza virus B/Lee/40, the “Selectivity index FluB Lee” value is above 17.9.
As to `Nc1ccc(C(=O)Nc2ccn(C3O[C@H](CO)[C@@H](O)[C@H]3F)c(=O)n2)nc1` (stereo in doubt) [Example 31, 5-Amino-N-(1-((2S,3R,4R,5R)-3-fluoro-4-hydroxy-5-(hydroxymethyl)tetrahydrofuran-2-yl)-2-oxo-1,2-dihydropyrimidin-4-yl)picolinamide], the values for the EC50 in the series on ZIKV, in the series on MERS-CoV and with DENV were 57.6 µM, above 100 µM and above 100 µM, respectively. Also, the CC50 at 3 days was above 100 µM in series [1] (setting [7]); above 100 µM in series [1] (CC50, Vero cells, ZIKV test); above 100 µM in “in vitro [3]”.
On to `O=C(Nc1ccn([C@@H]2O[C@H](CO)[C@@H](O)C2(F)F)c(=O)n1)c1cccnc1` [Example 1, N-(1-((2R,4R,5R)-3,3-difluoro-4-hydroxy-5-(hydroxymethyl)tetrahydrofuran-2-yl)-2-oxo-1,2-dihydropyrimidin-4-yl)nicotinamide], for which the EC50 amounted to 25 µM with FIPV (Alphacoronavirus 1, CRFK, 72 h); 76 µM in the series on hCoV (OC43); 4.6 µM in the series on hCoV (229E); 8.6 µM with Influenza virus B/Lee/40; 10.4 µM in the series with MERS-CoV; 3.42 µM in the series with DENV. The CC50 at 3 days (in series [1] (setting [7]); in “in vitro [2]”; in “in vitro [3]”) was above 100 µM in each case. Further, the “Selectivity index FluB Lee” value in the series on Influenza virus B/Lee/40 is given as above 34.9. The CC50 was above 100 µM in the series “in vitro [4]”, above 100 µM in the series with MRC-5 cells (human) and 56 µM in the series “in vitro [5]”.
For `O=C(Nc1ccn([C@@H]2O[C@H](CO)[C@@H](O)C2(F)F)c(=O)n1)c1ccccn1` [Example 2, N-(1-((2R,4R,5R)-3,3-difluoro-4-hydroxy-5-(hydroxymethyl)tetrahydrofuran-2-yl)-2-oxo-1,2-dihydropyrimidin-4-yl)picolinamide], the EC50 in the series on FIPV (Alphacoronavirus 1, CRFK, 72 h) was 9.1 µM; with hCoV (OC43), above 100 µM; with hCoV (229E), 0.8 µM; in the series on Influenza virus B/Lee/40 it was 2.2 µM; in the series with MERS-CoV, 1.8 µM; in the series with DENV it was 0.72 µM. In addition, the CC50 at 3 days (in [1] (setting [7]); in “in vitro [2]”; in the series “in vitro [3]”) was above 100 µM throughout. In the series with Influenza virus B/Lee/40, the “Selectivity index FluB Lee” value is recorded as above 136.4. Also, the CC50 in the series “in vitro [4]”, in the series with MRC-5 cells (human) and in the series “in vitro [5]” was above 100 µM each time.
Take `Cc1ccc(C(=O)Nc2ccn([C@@H]3O[C@H](CO)[C@@H](O)C3(F)F)c(=O)n2)cn1` [Example 4, N-(1-((2R,4R,5R)-3,3-difluoro-4-hydroxy-5-(hydroxymethyl)tetrahydrofuran-2-yl)-2-oxo-1,2-dihydropyrimidin-4-yl)-6-methylnicotinamide]: the EC50 in the series on FIPV (Alphacoronavirus 1, CRFK, 72 h) is 8.1 µM; in the series with hCoV (OC43) it was above 100 µM; in the series with hCoV (229E), 11.1 µM; in the series with Influenza virus B/Lee/40 it was 1.9 µM; in the series on MERS-CoV, 2.2 µM; in the series on DENV it was 0.71 µM. For the same compound, the CC50 at 3 days (in series [1] (setting [7]); in the series “in vitro [2]”; in the series “in vitro [3]”) was above 100 µM each time. Besides, in the series with Influenza virus B/Lee/40, the “Selectivity index FluB Lee” value is listed as above 157.9. Moreover, the CC50 in the series “in vitro [4]”, in the series with MRC-5 cells (human) and in “in vitro [5]” was above 100 µM throughout.
Consider `O=C(Nc1ccn([C@@H]2O[C@H](CO)[C@@H](O)C2(F)F)c(=O)n1)c1cccnn1` [Example 5, N-(1-((2R,4R,5R)-3,3-difluoro-4-hydroxy-5-(hydroxymethyl)tetrahydrofuran-2-yl)-2-oxo-1,2-dihydropyrimidin-4-yl)pyridazine-3-carboxamide], for which the EC50 in the series on FIPV (Alphacoronavirus 1, CRFK, 72 h) is 8.5 µM; in the series on hCoV (OC43), 17.2 µM; in the series on hCoV (229E), 8.9 µM; in the series on Influenza virus B/Lee/40 it was 2.1 µM; with MERS-CoV, 1.4 µM; in the series with DENV it was 0.94 µM. Further, the CC50 at 3 days (in series [1] (setting [7]); in “in vitro [2]”; in the series “in vitro [3]”) was above 100 µM throughout. Further, in the series with Influenza virus B/Lee/40, the “Selectivity index FluB Lee” value is above 142.9. Besides, the CC50 in “in vitro [4]”, with MRC-5 cells (human) and in “in vitro [5]” was above 100 µM throughout.
As to `O=C1CCCN1c1ccn([C@@H]2O[C@H](CO)[C@@H](O)C2(F)F)c(=O)n1` [Example 7], the EC50 with FIPV (setting [8]) was 77 µM; in the series on hCoV (OC43) (setting [9]), above 100 µM; in the series with hCoV (229E) (setting [9]) it was 17.6 µM; in the series on Influenza virus B/Lee/40, 9.4 µM; with DENV it was 15.7 µM. For the same compound, the CC50 at 3 days (in series [1] (setting [7]); in “in vitro [2]”) was above 100 µM in each case. In the series with Influenza virus B/Lee/40, the “Selectivity index FluB Lee” value is recorded as above 10.6. For the same compound, the CC50 in “in vitro [4]”, with MRC-5 cells (setting [10]) and in the series “in vitro [5]” was above 100 µM each time.
As to `O=C(Nc1ccn([C@@H]2O[C@H](CO)[C@@H](O)C2(F)F)c(=O)n1)c1ccc(F)cn1` [Example 9, N-(1-((2R,4R,5R)-3,3-difluoro-4-hydroxy-5-(hydroxymethyl)tetrahydrofuran-2-yl)-2-oxo-1,2-dihydropyrimidin-4-yl)-5-fluoropicolinamide], the EC50 in the series on FIPV (setting [8]) was 18 µM; with hCoV (OC43) (setting [9]) it was above 100 µM; with hCoV (229E) (setting [9]), 2.4 µM; in the series with Influenza virus B/Lee/40, 6.1 µM; in the series on DENV it was 1.34 µM. The CC50 at 3 days (in series [1] (setting [7]); in “in vitro [2]”) was above 100 µM each time. In the series with Influenza virus B/Lee/40, the “Selectivity index FluB Lee” value is recorded as above 16.4. For the same compound, the CC50 in “in vitro [4]”, with MRC-5 cells (setting [10]) and in “in vitro [5]” was above 100 µM in each case.
On to `Cc1ccc(C(=O)Nc2ccn([C@@H]3O[C@H](CO)[C@@H](O)C3(F)F)c(=O)n2)nc1` [Example 10, N-(1-((2R,4R,5R)-3,3-difluoro-4-hydroxy-5-(hydroxymethyl)tetrahydrofuran-2-yl)-2-oxo-1,2-dihydropyrimidin-4-yl)-5-methylpicolinamide], for which the EC50 was 21 µM in the series on FIPV (setting [8]); above 100 µM in the series with hCoV (OC43) (setting [9]); 7.4 µM in the series with hCoV (229E) (setting [9]); 9.8 µM in the series with Influenza virus B/Lee/40; 2.53 µM with DENV. The CC50 at 3 days (in [1] (setting [7]); in the series “in vitro [2]”) was above 100 µM in each case. Also, in the series on Influenza virus B/Lee/40, the “Selectivity index FluB Lee” value is on record as above 10.2. The CC50 in “in vitro [4]” is above 100 µM; in the series with MRC-5 cells (setting [10]), above 100 µM; in the series “in vitro [5]” it was 92 µM.
As to `Cc1cccc(C(=O)Nc2ccn([C@@H]3O[C@H](CO)[C@@H](O)C3(F)F)c(=O)n2)n1` [Example 13, N-(1-((2R,4R,5R)-3,3-difluoro-4-hydroxy-5-(hydroxymethyl)tetrahydrofuran-2-yl)-2-oxo-1,2-dihydropyrimidin-4-yl)-6-methylpicolinamide], the values for the EC50 in the series with hCoV (229E) (setting [9]), in the series on Influenza virus B/Lee/40 and in the series with DENV were 5.8 µM, 7.8 µM and 1.98 µM, respectively. Also, the CC50 at 3 days (in [1] (setting [7]); in the series “in vitro [2]”) was above 100 µM throughout. Further, in the series on Influenza virus B/Lee/40, the “Selectivity index FluB Lee” value is reported as above 12.8. The same compound showed a CC50 in the series “in vitro [4]” above 100 µM.
